Source: patent US9670242B2, “Tetracyclic anthraquinone derivatives” (Tianjin Hemay Bio-Tech Co., Ltd, priority 2012, dated 2017)

Tests used:
DU-145 cells = experiment: DU-145 cell growth inhibition test (MTT assay); format: cell-based; settings: 72 h
Procedure: DU-145 Cell Growth Inhibition Test (MTT Assay)
(§1) II. Reagents and Consumable Materials
Culture medium: 90% EMEM+10% FBS (fetal calf serum); Pancreatin (0.25% (w/v) solution was formulated with PBS, 0.53 mM of EDTA was added in the formulation); PBS; 96-well culture plate.
(§2) 1. A plate (10 cm) of cells in logarithmic growth phase that were normally cultured was collected;
(§3) 2. The culture solution was sucked out. The plate was washed with 5 mL of PBS once or twice;
3. PBS was sucked out. 1.5 mL of 0.25% pancreatin was added to the plate to infiltrate the cells for 1 min;
4. The culture plate was placed in an incubator. Digestion was carried out for about 1 min at 37° C.;
5. 3 mL of complete culture solution was added to the culture plate to stop the digestion. The cells were carefully scoured with micropipette (1 mL) to give a uniform cell suspension. The suspension was implanted into a 96-well cell culture disc by 4000 cells/100 μL per well. The culture plate was incubated overnight under 5% CO2 at 37° C. In day 2, 100 μL of culture solution comprising a compound was added in each well. The plate was further incubated for 72 h under 5% CO2 at 37° C.;
6. The culture solution was sucked out;
7. 100 μL of serum-free culture solution containing 0.5 mg/mL MTT was added in each well. The plate was incubated for 3 h;
8. The culture solution was carefully sucked out;
9. 100 μL of DMSO was added in each well and vibrated to dissolve;
10. OD values were determined at 490 nM.
(§4) IV. Results and Treatments
1. Calculation of Relative Inhibition Ratio The inhibition ratio of a compound on cell growth=(PC−n)/(PC−NC)×100%
PC: OD values of cells after normal growth in control wells without a compound;
n: OD values of cells after growth in test wells with a compound;
NC: Background OD values of blank wells without a compound and cells.

MCF-7 cells = experiment: MCF-7 cell growth inhibition test (SRB assay); format: cell-based, human; settings: 73 h
Procedure: MCF-7 Cell Growth Inhibition Test (SRB Assay)
as §1
Culture medium: 90% EMEM+10% FBS; Pancreatin (0.25% (w/v) solution was formulated with PBS, 0.53 mM of EDTA was added in the formulation); PBS; 96-well culture plate.
as §2, §3
3. 1.5 mL of 0.25% pancreatin was added to the plate to infiltrate the cells;
4. The pancreatin was sucked out. The culture plate was placed in an incubator. Digestion was carried out for about 3 min at 37° C.;
5. 4 mL of complete culture solution was added to the culture plate to stop the digestion. The cells were carefully scoured with micropipette (1 mL) to give a uniform single cell suspension. The suspension was implanted into a 96-well cell culture plate by 10000 cells/100 μL per well. The culture plate was incubated overnight under 5% CO2 at 37° C. In day 2, 100 μL of culture solution comprising a compound was added in each well. The plate was further incubated for 73 h under 5% CO2 at 37° C.;
6. The culture solution was sucked out. 100 uL of TCA fixed cells which were diluted to 10% were added to each well. The plate was kept in a refrigerator for 1 h at 4° C.
7. TCA stationary liquid was sucked out. Each well was washed with 150 μL of ddH2O five times;
8. After the stationary liquid was cleansed, the plate was dried in the air at the room temperature;
9. 60 μL of SRB staining solution was added in each well. The well was stained for 15 min at the room temperature;
10. The SRB staining solution was sucked out. Each well was washed with 150 μL of 1% glacial acetic acid five times;
11. After the SRB staining solution was cleansed, the plate was dried in the air at the room temperature;
12. 100 μL of 10 mM Tris was added in each well. The plate was vibrated to dissolve out SRB;
13. OD values were determined at 570 nM.
as §4
1. Calculation of Relative Inhibition Ratio The inhibition ratio of a compound on cell growth=(PC−n)/(PC−NC)×100% […]

MDA-MB-453 cells = experiment: MDA-MB-453 cell growth inhibition test (SRB assay); format: cell-based, human; settings: growth inhibition at 2000 nM, 69.5 h
Outline: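 MDA-MB-453 cells (7000/well) in L15 with 10% FBS were seeded overnight, then exposed to compound for 69.5 h at 37 °C and 5% CO2. After TCA fixation and SRB staining, dye was solubilised in Tris and OD read at 570 nm. Inhibition = (PC−n)/(PC−NC)×100%.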

BxPc-3 cells = experiment: BxPc-3 cell growth inhibition test (MTT assay); format: cell-based, human; settings: growth inhibition at 2000 nM, 70 h
Outline: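 BxPC-3 human pancreatic cancer cells at 5000 per well in RPMI-1640 with 10% FBS were treated with compound from day 2 for 70 h at 37 °C, 5% CO2. Viability was measured by MTT (0.5 mg/mL, 3 h) with DMSO solubilisation and OD 490 nm. Inhibition ratio = (PC−n)/(PC−NC)×100%.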

NCI-H446 cells = experiment: NCI-H446 cell growth inhibition test (MTT assay); format: cell-based, human; settings: growth inhibition at 222 nM, 70 h
Outline: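 Human small cell lung cancer cells in RPMI-1640 with 10% FBS were seeded at 4000 per well and treated with compound for 70 h at 37° C, 5% CO2. MTT at 0.5 mg/mL was added for 3 h, formazan was dissolved in DMSO and OD read at 490 nm. Inhibition ratio was calculated against untreated and blank wells.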

| Structure (SMILES) | IC50 (DU-145 cells) [nM] | IC50 (MCF-7 cells) [nM] | Inhibition Ratio (%) (MDA-MB-453 cells) | Inhibition Ratio (%) (BxPc-3 cells) | Inhibition Ratio (%) (NCI-H446 cells) |
| --- | --- | --- | --- | --- | --- |
| COc1cccc2c1C(=O)c1c(O)c3c(c(O)c1C2=O)CC(O)(C(=O)COC(=O)CCC(=O)O)CC3OC1CC(n2cccc2)C(O)C(C)O1 (stereo not shown) [Compound A, 3′-pyrrolyldoxorubicin-14-oxo-succinic acid monoester, reference compound] | 99 | 785 | – | – | – |
| COc1cccc2c1C(=O)c1c(O)c3c(c(O)c1C2=O)CC(O)(C(=O)COC(=O)CCC(=O)NCCOCCO)CC3OC1CC(n2cccc2)C(O)C(C)O1 (stereo not shown) [Example 62] | 34 | – | 83.7 | 82.5 | 64.6 |
| CC(=O)O.COc1cccc2c1C(=O)c1c(O)c3c(c(O)c1C2=O)CC(O)(C(=O)COC(=O)CCC(=O)NCCCN1CCN(C)CC1)CC3O[C@H]1C[C@H](n2cccc2)[C@H](O)[C@H](C)O1 (stereo partly drawn) [Example 81, 10-((3′-(pyrrol-1-yll)-2′,3′,6′-trideoxy-alphal-l-lyxo-hexylpyranyl)oxy)-7,8,9,10-tetrahydro-6,8,11-trihydroxy-13-oxo-14-(4-((3-(4-methylpiperazin-1-yl)propyl)amino)-4-oxo-butyrato)-1-methoxy-5,12-naphthalenedione acetate] | – | 225 | 72 | 80.7 | 56.8 |
